Reference: patent publication US20230348394A1, “COMPOSITIONS AND METHODS FOR TREATING MUSCULAR DYSTROPHIES” (The Regents of the University of California, priority 2020, published 2023)

Assays:
[1] = test system: alpha-dystroglycan (α-DG); experiment: Immunoblot of total protein lysates, C2C12 myotubes; type: cell-based, murine; conditions: 5 μM, 48 hours
Description: (§1) Myotubes treated for 48 hrs were lysed using RIPA buffer (Thermo Fisher Scientific) containing Halt Protease Inhibitor Cocktail (Thermo Fisher Scientific). Cell lysates in RIPA buffer were rocked for 1 hr at 4° C. and centrifuged at 1,000 RPM for 30 mins at 4° C. The supernatant was collected, quantified for protein concentration using the DC protein assay (Bio-Rad), and normalized to 2 mg/ml in water and Laemmli sample buffer with a final concentration of 10% glycerol (Sigma-Aldrich), 5% beta-mercaptoethanol (Sigma-Aldrich), 3% sodium dodecyl sulfate (Sigma-Aldrich), and 0.05% bromophenol blue (Sigma-Aldrich). For SDS-PAGE, samples were heated to 95° C. for 2 mins before loading 40 μg onto 4-12% tris-glycine or bis-tris polyacrylamide gels (Novex), electrophoresed for 2 hrs at 100 volts at RT, and transferred to a nitrocellulose membrane for 2 hrs at 100 volts at 4° C. Ponceau S staining was performed to visualize protein loading and verify protein transfer. […] Autoradiography films were developed using a SRX-101A tabletop processor (Konica Minolta), scanned to a digital file, and analyzed by densitometry of bands using ImageJ version 1.51 s. […]

[2] = test system: membrane-associated utrophin; experiment: Cell surface protein biotinylation and utrophin immunoblot, mdx myotubes; type: cell-based, murine; conditions: 5 μM, 48 hours
Description: as §1

**Q.** With CCN(CC)c1ccc2cc(C(=O)Nc3ccc(C(=O)N4CCCCCC4)cc3)c(=O)oc2c1 [OT-9] as the molecule, how does the “increase of core α-DG in total protein lysates” value [1] read?
**A.** 1.5 fold

**Q.** What about the “levels of glycosylated α-DG in total protein lysates” value [1] of the same molecule?
**A.** did not increase levels of glycosylated α-DG

**Q.** And the “increase in membrane-associated utrophin protein” value [2]?
**A.** 1.6 fold
